Molecules are shown by their SMILES. Like-named read-outs stand apart in the source and are kept apart here.

The target in test [1] is B-Raf (V600E) (SEQ. ID NO: 4) kinase (Homo sapiens (Human), UniProt P15056, V600E). Nature of the test: Biochemical Assay for B-Raf (V600E) (1). The conditions noted are these: Table J, BRAF V600E. The protocol:
Biochemical Assay for B-Raf (V600E) (1)
Activity of B-Raf (V600E) (SEQ. ID NO: 4) kinase was determined spectroscopically using a coupled pyruvate kinase/lactate dehydrogenase assay that continuously monitors the ATP hydrolysis-dependent oxidation of NADH (e.g., Schindler et al., Science, 2000, 289, 1938-1942). Assays were conducted in 384-well plates (100 μL final volume) using 0.03 nM B-Raf (SignalChem), 1.5 units pyruvate kinase, 2.1 units lactate dehydrogenase, 1 mM phosphoenol pyruvate, 0.28 mM NADH, 30.1 nM MEK (SignalChem), and 1 mM ATP in assay buffer (100 mM Tris, Ph 7.5, 15 mM MgCl2, 0.5 mM DTT, 0.1% octyl-glucoside, 0.002% (w/v) BSA, and 0.002% Triton X-100). Inhibition of B-Raf (V600E) was measured by adding serial diluted test compound (final assay concentration of 1% DMSO). A decrease in absorption at 340 nm was monitored continuously for 6 h at 30° C. on a multi-mode microplate reader (BioTek). The reaction rate was calculated using the 3 to 4 h time frame. The reaction rate at each concentration of compound was converted to percent inhibition using controls (i.e., reaction with no test compound and reaction with a known inhibitor) and IC50 values were calculated by fitting a four-parameter sigmoidal curve to the data using Prism (GraphPad software).

In test [2] the target is C-Raf kinase (SEQ. ID NO: 3) (Homo sapiens (Human), UniProt P04049, Y340D/Y341D). Nature of the test: Biochemical Assay for C-Raf (1). The conditions noted are these: Table J. How it is done: Biochemical Assay for C-Raf (1)
Chain of C-Raf kinase (SEQ. ID NO: 3) (P04049 307-648 Y340D/Y341D): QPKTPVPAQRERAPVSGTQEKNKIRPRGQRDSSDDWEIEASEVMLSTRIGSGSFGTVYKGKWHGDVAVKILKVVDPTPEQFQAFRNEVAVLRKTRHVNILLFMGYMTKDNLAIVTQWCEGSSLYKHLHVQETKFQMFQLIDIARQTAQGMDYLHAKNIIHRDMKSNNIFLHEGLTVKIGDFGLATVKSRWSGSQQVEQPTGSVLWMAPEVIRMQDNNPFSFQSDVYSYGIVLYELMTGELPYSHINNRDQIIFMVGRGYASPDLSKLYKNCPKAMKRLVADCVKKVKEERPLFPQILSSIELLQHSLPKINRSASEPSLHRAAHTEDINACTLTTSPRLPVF
(§1) Activity of C-Raf kinase (SEQ. ID NO: 3) was determined spectroscopically using a coupled pyruvate kinase/lactate dehydrogenase assay that continuously monitors the ATP hydrolysis-dependent oxidation of NADH (e.g., Schindler et al., Science, 2000, 289, 1938-1942). Assays were conducted in 384-well plates (100 μL final volume) using 0.43 nM C-Raf (Sigma), 1.5 units pyruvate kinase, 2.1 units lactate dehydrogenase, 1 mM phosphoenol pyruvate, 0.28 mM NADH, 30.1 nM MEK (SignalChem), and 1 mM ATP in assay buffer (100 mM Tris, Ph 7.5, 15 mM MgCl2, 0.5 mM DTT, 0.1% octyl-glucoside, 0.002% (w/v) BSA, and 0.002% Triton X-100). Inhibition of C-Raf was measured by adding serial diluted test compound (final assay concentration of 1% DMSO). A decrease in absorption at 340 nm was monitored continuously for 6 h at 30° C. on a multi-mode microplate reader (BioTek). The reaction rate was calculated using the 4 to 5 h time frame. The reaction rate at each concentration of compound was converted to percent inhibition using controls (i.e., reaction with no test compound and reaction with a known inhibitor) and IC50 values were calculated by fitting a four-parameter sigmoidal curve to the data using Prism (GraphPad software).

The next test relates to A375 cells. Nature of the test: A375 Cell Proliferation Assay (1). Format: cell-based. The conditions noted are these: Homo sapiens, A-375. The protocol: A375 Cell Proliferation Assay (1)
A375 cells (catalog (#CRL-1619) are obtained from the American Type Culture Collect (ATTC, Manassas, VA). Briefly, cells were grown in DMEM High Glucose supplemented with 10% characterized fetal bovine serum (Invitrogen, Carlsbad, CA) and 1% Penicillin/Streptomycin/L-Glutamine at 37° C., 5% CO2, and 95% humidity. Cells are expanded until reaching 70-95% confluency at which point they are sub-cultured or harvested for assay use. A serial dilution of test compound is dispensed into a 96-well black clear bottom plate in triplicate. Two thousand five hundred cells are added per well in 200 μL complete growth medium in the 96-well plate. Plates are incubated for 67-72 h at 37° C., 5% CO2, and 95% humidity. At the end of the incubation, 40 μL of a 440 μM solution of resazurin (Sigma, St. Louis, MO) in PBS is added to each well of the plate and plates are incubated for an additional 5-6 h at 37° C., 5% CO2, and 95% humidity. Plates are read on a Synergy2 or equivalent reader (Biotek, Winooski VT) using an excitation of 540 nm and an emission of 600 nm. Data is analyzed using Prism software (GraphPad, San Diego, CA) to calculate IC50 values.

In test [3] the target is B-Raf kinase (SEQ. ID NO: 2) (Homo sapiens (Human), UniProt P15056). Nature of the test: Biochemical Assay for B-Raf (1). The conditions noted are these: Table J. The protocol:
Biochemical Assay for B-Raf (1)
as §1, with “B-Raf” for “C-Raf”, “2)” for “3)”, “0.13” for “0.43”

In test [4] the target is A-Raf kinase (SEQ. ID No: 1) (Homo sapiens (Human), UniProt P10398, Y301D/Y302D). Nature of the test: Biochemical Assay for A-Raf (1). The conditions noted are these: Table J. The protocol:
Biochemical Assay for A-Raf (1)
as §1, with “A-Raf” for “C-Raf”, “No: 1)” for “NO: 3)”, “5.55” for “0.43”, “pH” for “Ph”

Setting [5] is: assay version (1), read-out: BRAF VE (1) IC50.
Where [6] appears, read: assay version (1), read-out: CRAF (1) IC50.
The mark [7] stands for this setting: assay version (1), read-out: BRAF (1) IC50.
The mark [8] stands for this setting: assay version (1), read-out: ARAF (1) IC50.
Where [9] appears, read: biochemical assay (1), read-out: BRAF VE (1).
Where [10] appears, read: biochemical assay (1), read-out: CRAF (1).
The mark [11] stands for this setting: biochemical assay (1), read-out: BRAF (1).
Where [12] appears, read: biochemical assay (1), read-out: ARAF (1).

Chain of B-Raf (V600E) (SEQ. ID NO: 4) kinase (P15056 416-766 V600E): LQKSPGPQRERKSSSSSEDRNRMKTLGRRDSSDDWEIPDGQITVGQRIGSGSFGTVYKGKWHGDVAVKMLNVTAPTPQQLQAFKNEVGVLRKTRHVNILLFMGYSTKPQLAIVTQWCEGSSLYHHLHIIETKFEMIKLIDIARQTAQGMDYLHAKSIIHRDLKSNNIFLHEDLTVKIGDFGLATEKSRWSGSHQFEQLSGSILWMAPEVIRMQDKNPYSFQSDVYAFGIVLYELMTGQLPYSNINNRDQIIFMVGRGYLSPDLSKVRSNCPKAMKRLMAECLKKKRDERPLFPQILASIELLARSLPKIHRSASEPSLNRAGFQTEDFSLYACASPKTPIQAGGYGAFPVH
Chain of A-Raf kinase (SEQ. ID No: 1) (P10398 other isoform, or with tags, fused parts or gaps Y301D (already in the parent)/Y302D (already in the parent)): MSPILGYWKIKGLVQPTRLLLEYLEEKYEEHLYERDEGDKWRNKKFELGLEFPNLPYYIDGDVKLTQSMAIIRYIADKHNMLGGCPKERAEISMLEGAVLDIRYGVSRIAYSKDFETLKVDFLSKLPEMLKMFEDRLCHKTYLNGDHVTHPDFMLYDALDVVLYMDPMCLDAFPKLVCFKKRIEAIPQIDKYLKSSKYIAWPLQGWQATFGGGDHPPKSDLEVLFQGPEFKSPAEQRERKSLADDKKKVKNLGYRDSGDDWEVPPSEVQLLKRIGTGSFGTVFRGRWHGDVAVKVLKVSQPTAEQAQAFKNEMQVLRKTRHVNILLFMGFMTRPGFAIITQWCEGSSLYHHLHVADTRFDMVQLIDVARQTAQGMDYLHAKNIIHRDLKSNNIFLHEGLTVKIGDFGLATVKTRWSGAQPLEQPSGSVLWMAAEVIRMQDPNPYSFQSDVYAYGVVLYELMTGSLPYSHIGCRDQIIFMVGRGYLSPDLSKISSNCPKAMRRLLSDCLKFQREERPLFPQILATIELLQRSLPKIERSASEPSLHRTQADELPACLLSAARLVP
Chain of B-Raf kinase (SEQ. ID NO: 2) (P15056 416-766): as the sequence (P15056 416-766 V600E) above, with E185V counted along it

Take `CCOc1cc(-c2cc(NC(=O)c3ccnc(C(F)(F)F)c3)c(F)cc2C)cc(-c2ccnc(NC(C)=O)c2)n1` [Example 9]: the IC50 in test [1] (setting [5]) was not above 0.1 µM; in test [2] (setting [6]), not above 0.1 µM; in the test on A375 cells it was 0.1 to 0.5 µM; in test [3] (setting [7]), 0.1 to 0.5 µM; in test [4] (setting [8]), 1 to 10 µM.
For the molecule `Cc1ccc(NC(=O)c2ccnc(C(F)(F)F)c2)cc1-c1cccc(-c2ccnc(N)c2)c1` [Example 38], the IC50 in test [1] (setting [5]) was not above 0.1 µM; in test [2] (setting [6]) it was not above 0.1 µM; with A375 cells it was 1 to 10 µM; in test [3] (setting [7]), not above 0.1 µM; in test [4] (setting [8]), 1 to 10 µM.
With `Cc1ccc(NC(=O)c2ccnc(C(F)(F)F)c2)cc1-c1ccnc(-c2ccncc2)c1` [Example 44], the IC50 was not above 0.1 µM in test [1] (setting [5]); not above 0.1 µM in test [2] (setting [6]); 1 to 10 µM in the test with A375 cells; not above 0.1 µM in test [3] (setting [7]); 1 to 10 µM in test [4] (setting [8]).
On to `Cc1ccc(NC(=O)c2ccnc(C(F)(F)F)c2)cc1-c1ccnc(-c2cncnc2)c1` [Example 45], for which the IC50 in test [1] (setting [5]) was not above 0.1 µM; in test [2] (setting [6]), not above 0.1 µM; with A375 cells, 1 to 10 µM; in test [3] (setting [7]) it was not above 0.1 µM; in test [4] (setting [8]) it was 1 to 10 µM.
Take `CNC(=O)c1cc(-c2cc(-c3cc(NC(=O)c4ccnc(C(F)(F)F)c4)ccc3F)cc(C)n2)ccn1` [Example 66]: the IC50 in test [1] (setting [5]) is not above 0.1 µM; in test [2] (setting [6]), not above 0.1 µM; in the test with A375 cells, 1 to 10 µM; in test [3] (setting [7]), 1 to 10 µM; in test [4] (setting [8]), 1 to 10 µM.
In the case of `CNC(=O)c1cc(-c2cccc(-c3cc(NC(=O)c4cccc(C)c4)cnc3C)c2)ccn1` [Example 91], the IC50 in test [1] (setting [5]) is not above 0.1 µM; in test [2] (setting [6]), not above 0.1 µM; with A375 cells, 1 to 10 µM; in test [3] (setting [7]) it was not above 0.1 µM; in test [4] (setting [8]), 1 to 10 µM.
As to `Cc1ncc(NC(=O)c2ccnc(C(F)(F)F)c2)cc1-c1cccc(-c2ccnc(NC(=O)CN(C)C)c2)c1` [Example 95], the IC50 was not above 0.1 µM in test [1] (setting [5]); not above 0.1 µM in test [2] (setting [6]); 0.5 to 1 µM with A375 cells; not above 0.1 µM in test [3] (setting [7]); 1 to 10 µM in test [4] (setting [8]).
For the molecule `CC(=O)Nc1cc(-c2cc(-c3cc(NC(=O)c4ccnc(C(C)(C)C#N)c4)c(F)cc3C)cn(C)c2=O)ccn1` [Example 116], the IC50 in test [1] (setting [5]) was not above 0.1 µM; in test [2] (setting [6]), 0.1 to 0.5 µM; with A375 cells, 0.1 to 0.5 µM; in test [3] (setting [7]), 0.1 to 0.5 µM; in test [4] (setting [8]) it was 1 to 10 µM.
Regarding `Cc1ccc(NC(=O)c2ccnc(C(F)(F)F)c2)cc1-c1ccnc(-c2ccnc(NC(=O)CC#N)c2)n1` [Example 144], the IC50 was not above 0.1 µM in test [1] (setting [5]); not above 0.1 µM in test [2] (setting [6]); 0.5 to 1 µM in the test with A375 cells; not above 0.1 µM in test [3] (setting [7]); 0.1 to 0.5 µM in test [4] (setting [8]).
With `Cc1ccc(NC(=O)c2cccc(C(C)(C)C#N)c2)cc1-c1cncc(-c2ccnc(C(=O)NC3CC3)c2)n1` [Example 149], the IC50 in test [1] (setting [5]) is not above 0.1 µM; in test [2] (setting [6]) it was 0.1 to 0.5 µM; with A375 cells, 1 to 10 µM; in test [3] (setting [7]), 0.1 to 0.5 µM; in test [4] (setting [8]), 1 to 10 µM.
`Cc1ncc(NC(=O)CC2COC2)cc1-c1cccc(-c2cc(NC(=O)C3CC3)ncn2)c1` [Example 356]: the IC50 was 0.5 to 1 µM in test [1] (setting [5]), 1 to 10 µM in test [2] (setting [6]), 1 to 10 µM in test [3] (setting [7]) and 1 to 10 µM in test [4] (setting [8]).
Regarding `COC(=O)Nc1cc(-c2cnnc(-c3cc(NC(=O)c4ccnc(C(C)(C)C#N)c4)ccc3F)c2)ccn1` [Example 390], the IC50 in test [1] (setting [9]) is 0.1 to 0.5 µM; in test [2] (setting [10]), not above 0.1 µM; in test [3] (setting [11]), not above 0.1 µM; in test [4] (setting [12]) it was 1 to 10 µM.
As to `Cc1ccc(NC(=O)Cn2cc(C(C)C)nn2)cc1-c1cncc(-c2cc(N)ncn2)c1` [Example 426], the IC50 in test [1] (setting [9]) lay within 1 to 10 µM; in test [2] (setting [10]) it was 0.5 to 1 µM; in test [3] (setting [11]), 1 to 10 µM; in test [4] (setting [12]), 1 to 10 µM.

(Values after US12319655B2, “RAF kinase inhibitors and methods of use thereof” (Deciphera Pharmaceuticals, LLC, priority 2021, dated 2025).)
